According to patent US11974552B2, “Transgenic C57BL6-BTBR mouse with a humanized MHC II gene that expresses GAD65” (The University of Toledo, priority 2018, dated 2024):

System: pancreatic lymph nodes (PLN) CD4 and CD8 T cells of humanized T1D mice
Assay: In-vitro CFSE proliferation assay of pancreatic lymph node T cells stimulated with rGAD65
Assay type: cell-based
Conditions: pulse stimulation 4 ug/ml for 4 days; PLN single cell suspension of diabetic mouse; CFSE tracking
Procedure: FIG. 6C: rGAD65 induced proliferation of CD4 and CD8 cells, pancreatic lymph nodes (PLN) were isolated from humanized T1D mice and were stimulated with GAD65 (4 μg/ml) for 4 days (n=4). The proliferation of cells were tracked using CFSE and analyzed by FLOWJO V10 Beta software using fix ratio, fix CV and fix background from the un-stimulated cells.
The diabetogenic T cells are auto-antigen specific in nature. The pancreatic lymph nodes (PLN) of a diabetic mouse were isolated and the single cell suspension was stimulated with recombinant human GAD65 protein (4 ug/ml). In-vitro proliferation assay using carboxyfluorescein succinimidyl ester (CFSE) to track the T cell proliferation was performed. Pulse stimulation with human rGAD65 (4 ug/ml) for 4 days increased the CD4 and CD8 proliferation by 9-10 folds (FIG. 6C).

With “human rGAD65: recombinant human Glutamic Acid Decarboxylase 65 protein used as autoantigen stimulus” the “increase of CD4 and CD8 proliferation” value was 9-10 folds.
